From US12479847B2 (DANA-FARBER CANCER INSTITUTE, INC., priority 2019, dated 2025)

Assays:
Experiment in all cases: KINOMEscan (ScanMAX) kinase profiling
Assay type in all cases: binding
panel of 468 kinases [1] = target: T1, panel of 468 kinases (Homo sapiens, UniProt Q15303); conditions: ERBB4; 1 μM; read-out: % control
T1 construct: purchased KINOMEscan (ScanMAX) service

panel of 468 kinases [2] = target: T2, panel of 468 kinases (Homo sapiens, UniProt O76039); conditions: CDKL5; 1 μM; read-out: % control
T2 construct: purchased KINOMEscan (ScanMAX) service
T2 sequence (O76039 1-960): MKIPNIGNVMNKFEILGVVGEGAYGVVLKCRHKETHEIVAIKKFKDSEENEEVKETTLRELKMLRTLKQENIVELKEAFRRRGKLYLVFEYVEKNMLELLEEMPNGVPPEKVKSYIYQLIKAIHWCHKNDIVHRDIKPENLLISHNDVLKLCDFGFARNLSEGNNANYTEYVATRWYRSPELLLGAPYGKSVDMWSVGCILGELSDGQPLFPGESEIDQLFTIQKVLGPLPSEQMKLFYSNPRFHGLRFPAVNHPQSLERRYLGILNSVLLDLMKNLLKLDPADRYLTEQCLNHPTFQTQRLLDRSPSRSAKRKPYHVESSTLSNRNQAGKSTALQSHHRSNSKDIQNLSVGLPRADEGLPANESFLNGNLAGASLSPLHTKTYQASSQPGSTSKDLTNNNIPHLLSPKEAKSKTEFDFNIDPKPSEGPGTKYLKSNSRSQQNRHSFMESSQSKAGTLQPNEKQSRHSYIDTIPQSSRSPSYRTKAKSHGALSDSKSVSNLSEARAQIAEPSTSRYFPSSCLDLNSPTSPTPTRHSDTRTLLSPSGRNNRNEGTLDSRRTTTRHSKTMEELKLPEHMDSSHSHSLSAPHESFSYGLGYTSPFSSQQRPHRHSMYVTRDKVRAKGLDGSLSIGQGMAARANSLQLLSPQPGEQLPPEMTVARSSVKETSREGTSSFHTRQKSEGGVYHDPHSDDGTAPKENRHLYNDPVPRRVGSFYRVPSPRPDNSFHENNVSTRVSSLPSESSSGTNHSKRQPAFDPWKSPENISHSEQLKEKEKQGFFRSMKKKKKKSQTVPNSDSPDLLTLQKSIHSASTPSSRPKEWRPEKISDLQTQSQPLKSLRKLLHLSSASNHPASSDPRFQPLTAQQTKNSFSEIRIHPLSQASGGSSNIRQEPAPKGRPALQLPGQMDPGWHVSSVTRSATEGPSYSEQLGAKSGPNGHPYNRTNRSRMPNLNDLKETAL

panel of 468 kinases [3] = target: T3, panel of 468 kinases (Homo sapiens, UniProt Q9NSY1); conditions: BIKE; 1 μM; read-out: % control
T3 construct: purchased KINOMEscan (ScanMAX) service

panel of 468 kinases [4] = conditions: 1 μM
panel of 468 kinases [5] = target: T4, panel of 468 kinases (Homo sapiens, UniProt Q8WXR4); conditions: MYO3B; 1 μM; read-out: % control
T4 construct: purchased KINOMEscan (ScanMAX) service
T4 sequence (Q8WXR4 1-1341): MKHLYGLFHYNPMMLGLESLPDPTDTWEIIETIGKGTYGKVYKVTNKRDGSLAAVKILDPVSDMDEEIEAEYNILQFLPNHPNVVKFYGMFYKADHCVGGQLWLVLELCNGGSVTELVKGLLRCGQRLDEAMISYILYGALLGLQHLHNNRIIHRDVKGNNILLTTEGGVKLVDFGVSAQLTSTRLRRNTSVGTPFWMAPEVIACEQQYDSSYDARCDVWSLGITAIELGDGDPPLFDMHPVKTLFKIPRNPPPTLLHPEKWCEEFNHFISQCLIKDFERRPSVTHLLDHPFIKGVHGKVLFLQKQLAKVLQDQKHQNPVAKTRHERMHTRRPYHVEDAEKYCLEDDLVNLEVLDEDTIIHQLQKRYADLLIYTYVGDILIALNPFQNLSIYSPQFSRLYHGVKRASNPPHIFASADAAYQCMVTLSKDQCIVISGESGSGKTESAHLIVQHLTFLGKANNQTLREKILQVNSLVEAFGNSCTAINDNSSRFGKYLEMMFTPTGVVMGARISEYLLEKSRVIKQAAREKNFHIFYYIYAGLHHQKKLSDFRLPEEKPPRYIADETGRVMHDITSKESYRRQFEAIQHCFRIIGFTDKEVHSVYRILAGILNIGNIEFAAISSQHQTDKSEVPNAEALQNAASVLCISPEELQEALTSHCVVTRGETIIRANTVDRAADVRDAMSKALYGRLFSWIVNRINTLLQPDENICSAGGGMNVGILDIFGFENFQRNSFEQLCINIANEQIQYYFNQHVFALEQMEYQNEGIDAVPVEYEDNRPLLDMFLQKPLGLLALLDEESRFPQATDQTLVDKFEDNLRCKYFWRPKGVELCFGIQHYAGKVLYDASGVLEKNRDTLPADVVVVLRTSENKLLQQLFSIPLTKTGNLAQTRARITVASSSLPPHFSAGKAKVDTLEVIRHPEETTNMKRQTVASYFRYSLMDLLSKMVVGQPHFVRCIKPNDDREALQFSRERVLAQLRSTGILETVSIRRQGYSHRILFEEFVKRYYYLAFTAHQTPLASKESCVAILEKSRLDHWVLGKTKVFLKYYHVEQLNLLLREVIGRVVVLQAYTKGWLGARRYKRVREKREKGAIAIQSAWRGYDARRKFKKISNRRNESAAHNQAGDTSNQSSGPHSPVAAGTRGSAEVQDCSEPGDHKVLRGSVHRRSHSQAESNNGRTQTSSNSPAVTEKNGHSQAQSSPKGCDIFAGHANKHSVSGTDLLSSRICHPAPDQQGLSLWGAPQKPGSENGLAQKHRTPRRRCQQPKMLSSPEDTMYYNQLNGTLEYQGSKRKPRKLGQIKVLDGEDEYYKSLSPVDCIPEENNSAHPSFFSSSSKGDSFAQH

panel of 468 kinases [6] = target: T5, panel of 468 kinases (Homo sapiens, UniProt Q9Y2H9); conditions: MAST1; 1 μM; read-out: % control
T5 construct: purchased KINOMEscan (ScanMAX) service
T5 sequence (Q9Y2H9 whole entry): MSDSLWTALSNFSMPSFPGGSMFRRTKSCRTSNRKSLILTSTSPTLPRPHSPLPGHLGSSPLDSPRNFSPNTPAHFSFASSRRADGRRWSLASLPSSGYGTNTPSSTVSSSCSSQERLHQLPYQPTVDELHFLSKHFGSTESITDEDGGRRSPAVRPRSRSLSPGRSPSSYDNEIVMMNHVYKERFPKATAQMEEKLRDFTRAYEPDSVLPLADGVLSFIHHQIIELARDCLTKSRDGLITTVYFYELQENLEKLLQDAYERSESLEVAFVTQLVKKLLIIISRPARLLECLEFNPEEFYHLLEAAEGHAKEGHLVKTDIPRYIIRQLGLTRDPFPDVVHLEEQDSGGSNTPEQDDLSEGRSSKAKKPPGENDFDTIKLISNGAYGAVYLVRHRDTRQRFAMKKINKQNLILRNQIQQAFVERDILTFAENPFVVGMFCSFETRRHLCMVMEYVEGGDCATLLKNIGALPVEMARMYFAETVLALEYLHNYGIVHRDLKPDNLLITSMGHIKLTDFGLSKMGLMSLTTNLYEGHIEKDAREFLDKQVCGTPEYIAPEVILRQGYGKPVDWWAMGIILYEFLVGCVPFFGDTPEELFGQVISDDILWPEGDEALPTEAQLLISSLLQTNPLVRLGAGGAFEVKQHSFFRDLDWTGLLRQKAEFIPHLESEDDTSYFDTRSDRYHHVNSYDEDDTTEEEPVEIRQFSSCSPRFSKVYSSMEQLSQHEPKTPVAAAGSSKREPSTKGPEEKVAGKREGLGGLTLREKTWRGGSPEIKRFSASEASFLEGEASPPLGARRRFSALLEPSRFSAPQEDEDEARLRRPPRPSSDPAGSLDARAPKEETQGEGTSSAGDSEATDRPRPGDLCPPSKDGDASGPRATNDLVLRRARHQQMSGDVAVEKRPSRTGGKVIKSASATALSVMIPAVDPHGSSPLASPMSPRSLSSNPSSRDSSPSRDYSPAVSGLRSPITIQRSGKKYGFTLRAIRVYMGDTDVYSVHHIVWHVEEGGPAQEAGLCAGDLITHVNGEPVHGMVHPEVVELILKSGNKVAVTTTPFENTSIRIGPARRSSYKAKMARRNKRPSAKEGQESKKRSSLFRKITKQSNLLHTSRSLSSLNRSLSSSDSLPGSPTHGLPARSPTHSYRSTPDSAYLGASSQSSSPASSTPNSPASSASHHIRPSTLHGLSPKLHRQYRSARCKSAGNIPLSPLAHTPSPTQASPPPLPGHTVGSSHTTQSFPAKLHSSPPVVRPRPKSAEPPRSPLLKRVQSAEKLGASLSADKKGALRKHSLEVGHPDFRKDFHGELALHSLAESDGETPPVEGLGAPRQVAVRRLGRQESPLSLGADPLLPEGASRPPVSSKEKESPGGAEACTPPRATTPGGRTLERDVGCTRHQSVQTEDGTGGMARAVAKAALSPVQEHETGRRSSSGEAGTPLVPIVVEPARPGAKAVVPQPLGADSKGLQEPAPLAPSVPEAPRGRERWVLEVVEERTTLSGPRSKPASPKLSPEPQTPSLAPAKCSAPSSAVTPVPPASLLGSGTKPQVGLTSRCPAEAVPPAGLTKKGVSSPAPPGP

T3 sequence (Q9NSY1 whole entry): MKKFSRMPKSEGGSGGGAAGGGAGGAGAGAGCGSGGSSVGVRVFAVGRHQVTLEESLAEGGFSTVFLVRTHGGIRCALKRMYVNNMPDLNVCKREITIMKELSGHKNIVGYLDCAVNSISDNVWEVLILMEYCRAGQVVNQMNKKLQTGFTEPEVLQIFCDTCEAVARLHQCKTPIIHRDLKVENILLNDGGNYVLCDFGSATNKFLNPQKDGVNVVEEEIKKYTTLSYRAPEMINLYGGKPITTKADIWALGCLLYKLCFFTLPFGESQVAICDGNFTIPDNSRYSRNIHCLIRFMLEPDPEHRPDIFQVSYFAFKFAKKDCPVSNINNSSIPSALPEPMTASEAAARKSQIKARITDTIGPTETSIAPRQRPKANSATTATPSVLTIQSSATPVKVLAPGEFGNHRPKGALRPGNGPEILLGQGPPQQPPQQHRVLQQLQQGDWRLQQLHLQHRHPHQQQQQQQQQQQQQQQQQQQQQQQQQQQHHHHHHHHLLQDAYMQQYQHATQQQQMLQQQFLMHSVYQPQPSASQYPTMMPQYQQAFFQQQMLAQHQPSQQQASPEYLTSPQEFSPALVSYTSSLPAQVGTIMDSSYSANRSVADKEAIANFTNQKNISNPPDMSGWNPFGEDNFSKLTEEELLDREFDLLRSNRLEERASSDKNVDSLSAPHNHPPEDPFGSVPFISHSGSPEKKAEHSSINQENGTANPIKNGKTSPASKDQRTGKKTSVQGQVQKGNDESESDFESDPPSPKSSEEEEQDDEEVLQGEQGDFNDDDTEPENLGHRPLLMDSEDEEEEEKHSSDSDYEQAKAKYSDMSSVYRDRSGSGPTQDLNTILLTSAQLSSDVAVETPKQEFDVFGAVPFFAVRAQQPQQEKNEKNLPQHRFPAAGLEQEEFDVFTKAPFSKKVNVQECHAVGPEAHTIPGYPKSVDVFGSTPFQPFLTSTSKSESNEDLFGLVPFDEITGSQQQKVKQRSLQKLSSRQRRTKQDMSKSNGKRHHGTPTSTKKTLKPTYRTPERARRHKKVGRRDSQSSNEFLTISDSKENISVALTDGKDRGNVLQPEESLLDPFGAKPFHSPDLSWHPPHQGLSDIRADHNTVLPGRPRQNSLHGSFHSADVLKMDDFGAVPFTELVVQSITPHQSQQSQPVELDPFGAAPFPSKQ
T1 sequence (Q15303 26-1308): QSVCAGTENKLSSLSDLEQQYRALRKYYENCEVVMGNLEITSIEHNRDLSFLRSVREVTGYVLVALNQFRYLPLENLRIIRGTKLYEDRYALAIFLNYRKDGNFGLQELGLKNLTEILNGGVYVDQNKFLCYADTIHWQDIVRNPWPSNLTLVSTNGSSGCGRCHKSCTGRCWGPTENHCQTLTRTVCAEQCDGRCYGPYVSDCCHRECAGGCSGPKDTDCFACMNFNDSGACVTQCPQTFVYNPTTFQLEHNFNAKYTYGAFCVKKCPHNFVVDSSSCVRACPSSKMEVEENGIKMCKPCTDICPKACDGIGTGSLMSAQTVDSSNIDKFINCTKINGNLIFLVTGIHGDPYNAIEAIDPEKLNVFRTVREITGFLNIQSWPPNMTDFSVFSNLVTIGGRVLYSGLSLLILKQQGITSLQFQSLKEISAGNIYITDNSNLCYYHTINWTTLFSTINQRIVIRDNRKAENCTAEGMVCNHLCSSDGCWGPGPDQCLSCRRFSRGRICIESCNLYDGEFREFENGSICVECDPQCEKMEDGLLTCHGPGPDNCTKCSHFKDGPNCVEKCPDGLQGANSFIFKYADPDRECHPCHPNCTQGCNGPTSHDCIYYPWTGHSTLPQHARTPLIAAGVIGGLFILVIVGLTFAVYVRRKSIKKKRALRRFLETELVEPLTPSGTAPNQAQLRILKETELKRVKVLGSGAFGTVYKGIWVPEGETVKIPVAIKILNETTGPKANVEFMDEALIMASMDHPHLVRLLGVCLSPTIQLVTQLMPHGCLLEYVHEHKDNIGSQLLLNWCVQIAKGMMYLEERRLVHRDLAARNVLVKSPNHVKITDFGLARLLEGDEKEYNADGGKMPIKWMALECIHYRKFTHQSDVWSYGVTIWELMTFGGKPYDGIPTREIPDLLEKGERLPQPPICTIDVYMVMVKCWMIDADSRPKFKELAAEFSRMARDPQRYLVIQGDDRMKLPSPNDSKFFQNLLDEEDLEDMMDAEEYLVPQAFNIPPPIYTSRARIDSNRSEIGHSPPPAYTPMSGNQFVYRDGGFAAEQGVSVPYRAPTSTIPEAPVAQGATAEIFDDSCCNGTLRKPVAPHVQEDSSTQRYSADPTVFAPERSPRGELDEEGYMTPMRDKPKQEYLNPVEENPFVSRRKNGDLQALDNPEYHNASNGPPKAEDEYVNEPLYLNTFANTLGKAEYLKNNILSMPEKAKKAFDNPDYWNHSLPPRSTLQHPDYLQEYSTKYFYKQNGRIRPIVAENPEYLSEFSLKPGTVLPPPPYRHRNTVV

Row | Compound | remaining binding at 1 µM (panel of 468 kinases [1]) | remaining binding at 1 µM (panel of 468 kinases [2]) | remaining binding at 1 µM (panel of 468 kinases [3]) | % control (panel of 468 kinases [4]; EGFR(L747-E749del, A750P)) | % control (panel of 468 kinases [4]; EGFR(L747-S752del, P753S)) | % control (panel of 468 kinases [4]; EGFR(L747-T751del,Sins)) | % control (panel of 468 kinases [4]; FLT3(ITD)) | % control (panel of 468 kinases [4]; FLT3(ITD,D835V)) | % control (panel of 468 kinases [4]; FLT3(ITD,F691L)) | remaining binding at 1 µM (panel of 468 kinases [5]) | remaining binding at 1 µM (panel of 468 kinases [6])
1 | CNc1nc(Nc2ccc(S(=O)(=O)N3CCC(N4CCOCC4)CC3)cc2OC)nc2[nH]cc(Cl)c12 [Compound 12, 5-chloro-N2-(2-methoxy-4-((4-morpholinopiperidin-1-yl)sulfonyl)phenyl)-N4-methyl-7H-pyrrolo[2,3-d]pyrimidine-2,4-diamine] | 99% | 83% | 96% | 100% | 95% | 100% | 100% | 61% | 66% | 95% | 100%
2 | CNc1nc(Nc2ccc(C(=O)N3CCC(N4CCOCC4)CC3)c3c2OCO3)nc2[nH]cc(Cl)c12 [Compound 75, (7-((5-chloro-4-(methylamino)-7H-pyrrolo[2,3-d]pyrimidin-2-yl)amino)benzo[d][1,3]dioxol-4-yl)(4-morpholinopiperidin-1-yl)methanone] | 90% | 83% | 40% | 100% | 87% | 100% | 33% | 2% | 2.8% | 100% | 93%
3 | CNc1nc(Nc2ccc(P3(=O)CCN(C4CCOCC4)CC3)cc2OC)nc2[nH]cc(Cl)c12 [Compound 77, 4-(4-((5-chloro-4-(methylamino)-7H-pyrrolo[2,3-d]pyrimidin-2-yl)amino)-3-methoxyphenyl)-1-(tetrahydro-2H-pyran-4-yl)-1,4-azaphosphinane 4-oxide] | 88% | 91% | 91% | 92% | 99% | 100% | 81% | 19% | 40% | 100% | 97%
